# Results reported in ChEMBL document CHEMBL1201862, “PubChem BioAssay data set” (2004).
#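 Five compound concentrations were applied to cells in 96-well plates for 48 hours; endpoints were derived by simple linear interpolation of the resulting dose-response curve. GI50 marks 50% less growth.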 Activity calls are given as the source filed them. Rule as the data show it: active = GI50 up to about 1.1 µM and inactive = higher.
# Experiments:
# Test in all cases: NCI tumour cell line growth inhibition, 48 h
# 786-0 = tested on: 786-0
# A549 = tested on: A549
# ACHN = tested on: ACHN
# CAKI-1 = tested on: CAKI-1
# CCRF-CEM = tested on: CCRF-CEM
# COLO 205 = tested on: COLO 205
# DLD-1 = tested on: DLD-1
# DMS-273 = tested on: DMS-273
# EKVX = tested on: EKVX
# HCC 2998 = tested on: HCC 2998
# HCT-116 = tested on: HCT-116
# HCT-15 = tested on: HCT-15
# HL-60 = tested on: HL-60
# HOP-18 = tested on: HOP-18
# HOP-62 = tested on: HOP-62
# HOP-92 = tested on: HOP-92
# HT-29 = tested on: HT-29
# IGROV-1 = tested on: IGROV-1
# K562 = tested on: K562
# KM-20L2 = tested on: KM-20L2
# KM12 = tested on: KM12
# LOX IMVI = tested on: LOX IMVI
# LXFL 529 = tested on: LXFL 529
# M14 = tested on: M14
# M19-MEL = tested on: M19-MEL
# MOLT-4 = tested on: MOLT-4
# Malme-3M = tested on: Malme-3M
# NCI-H226 = tested on: NCI-H226
# NCI-H23 = tested on: NCI-H23
# NCI-H460 = tested on: NCI-H460
# NCI-H522 = tested on: NCI-H522
# OVCAR-3 = tested on: OVCAR-3
# OVCAR-4 = tested on: OVCAR-4
# OVCAR-5 = tested on: OVCAR-5
# OVCAR-8 = tested on: OVCAR-8
# RPMI-8226 = tested on: RPMI-8226
# RXF 393 = tested on: RXF 393
# SF-268 = tested on: SF-268
# SF-295 = tested on: SF-295
# SF-539 = tested on: SF-539
# SK-MEL-28 = tested on: SK-MEL-28
# SK-MEL-2 = tested on: SK-MEL-2
# SK-MEL-5 = tested on: SK-MEL-5
# SK-OV-3 = tested on: SK-OV-3
# SN12C = tested on: SN12C
# SNB-19 = tested on: SNB-19
# SNB-75 = tested on: SNB-75
# SNB-78 = tested on: SNB-78
# SR = tested on: SR
# SW-620 = tested on: SW-620
# TK-10 = tested on: TK-10
# U-251 = tested on: U-251
# UACC-257 = tested on: UACC-257
# UACC-62 = tested on: UACC-62
# UO-31 = tested on: UO-31
# XF498 = tested on: XF498
# DMS-114 = tested on: DMS-114
# A498 = tested on: A498
structure (smiles),measurement,setting,value
COc1ccc(-c2csc(=[N+]3CCCCC3)s2)cc1,GI50,786-0,4.83 µM (inactive)
same,GI50,A549,1.94 µM (inactive)
same,GI50,ACHN,9.44 µM (inactive)
same,GI50,CAKI-1,2.36 µM (inactive)
same,GI50,CCRF-CEM,1.62 µM (inactive)
same,GI50,COLO 205,1.49 µM (inactive)
same,GI50,DLD-1,4.79 µM (inactive)
same,GI50,DMS-273,3.27 µM (inactive)
same,GI50,EKVX,6.76 µM (inactive)
same,GI50,HCC 2998,3.85 µM (inactive)
same,GI50,HCT-116,4.42 µM (inactive)
same,GI50,HCT-15,47.3 µM
same,GI50,HL-60,2.29 µM (inactive)
same,GI50,HOP-18,5.15 µM (inactive)
same,GI50,HOP-62,2.54 µM (inactive)
same,GI50,HOP-92,2.38 µM (inactive)
same,GI50,HT-29,3.01 µM (inactive)
same,GI50,IGROV-1,4.54 µM (inactive)
same,GI50,K562,2.23 µM (inactive)
same,GI50,KM-20L2,2.66 µM (inactive)
same,GI50,KM12,2.36 µM (inactive)
same,GI50,LOX IMVI,4.83 µM (inactive)
same,GI50,LXFL 529,3.07 µM (inactive)
same,GI50,M14,10.9 µM (inactive)
same,GI50,M19-MEL,2.61 µM (inactive)
same,GI50,MOLT-4,2.53 µM (inactive)
same,GI50,Malme-3M,2.76 µM (inactive)
same,GI50,NCI-H226,2.92 µM (inactive)
same,GI50,NCI-H23,1.63 µM (inactive)
same,GI50,NCI-H460,3.71 µM (inactive)
same,GI50,NCI-H522,1.72 µM (inactive)
same,GI50,OVCAR-3,3.92 µM (inactive)
same,GI50,OVCAR-4,4.48 µM (inactive)
same,GI50,OVCAR-5,8.83 µM (inactive)
same,GI50,OVCAR-8,3.05 µM (inactive)
same,GI50,RPMI-8226,2.11 µM (inactive)
same,GI50,RXF 393,4.14 µM (inactive)
same,GI50,SF-268,1.42 µM (inactive)
same,GI50,SF-295,1.98 µM (inactive)
same,GI50,SF-539,4.56 µM (inactive)
same,GI50,SK-MEL-28,6 µM (inactive)
same,GI50,SK-MEL-2,3.63 µM (inactive)
same,GI50,SK-MEL-5,1.87 µM (inactive)
same,GI50,SK-OV-3,3.41 µM (inactive)
same,GI50,SN12C,3.61 µM (inactive)
same,GI50,SNB-19,1.67 µM (inactive)
same,GI50,SNB-75,1.23 µM (inactive)
same,GI50,SNB-78,3.58 µM (inactive)
same,GI50,SR,2.26 µM (inactive)
same,GI50,SW-620,2.88 µM (inactive)
same,GI50,TK-10,29.3 µM (inactive)
same,GI50,U-251,0.743 µM (active)
same,GI50,UACC-257,3.34 µM (inactive)
same,GI50,UACC-62,7.78 µM (inactive)
same,GI50,UO-31,> 100 µM (inactive)
same,GI50,XF498,4.05 µM (inactive)
CCCCN1C(=O)NC(Cc2ccccc2)C1=O (centres undefined),GI50,A549,> 100 µM (inactive)
same,GI50,ACHN,> 100 µM (inactive)
same,GI50,CAKI-1,> 100 µM (inactive)
same,GI50,DLD-1,> 100 µM (inactive)
same,GI50,DMS-114,> 100 µM (inactive)
same,GI50,DMS-273,> 100 µM (inactive)
same,GI50,EKVX,> 100 µM (inactive)
same,GI50,HCC 2998,> 100 µM (inactive)
same,GI50,HOP-18,> 100 µM (inactive)
same,GI50,HOP-62,> 100 µM (inactive)
same,GI50,HT-29,> 100 µM (inactive)
same,GI50,KM-20L2,> 100 µM (inactive)
same,GI50,KM12,> 100 µM (inactive)
same,GI50,LOX IMVI,> 100 µM (inactive)
same,GI50,LXFL 529,> 100 µM (inactive)
same,GI50,M14,> 100 µM (inactive)
same,GI50,M19-MEL,> 100 µM (inactive)
same,GI50,Malme-3M,> 100 µM (inactive)
same,GI50,NCI-H226,> 100 µM (inactive)
same,GI50,NCI-H23,> 100 µM (inactive)
same,GI50,NCI-H460,> 100 µM (inactive)
same,GI50,NCI-H522,> 100 µM (inactive)
same,GI50,OVCAR-5,> 100 µM (inactive)
same,GI50,OVCAR-8,> 100 µM (inactive)
same,GI50,RXF 393,> 100 µM (inactive)
same,GI50,SF-268,> 100 µM (inactive)
same,GI50,SF-295,> 100 µM (inactive)
same,GI50,SF-539,> 100 µM (inactive)
same,GI50,SK-MEL-28,> 100 µM (inactive)
same,GI50,SK-MEL-2,> 100 µM (inactive)
same,GI50,SN12C,> 100 µM (inactive)
same,GI50,SNB-19,> 100 µM (inactive)
same,GI50,SNB-75,> 100 µM (inactive)
same,GI50,SNB-78,> 100 µM (inactive)
same,GI50,SR,> 100 µM (inactive)
same,GI50,SW-620,> 100 µM (inactive)
same,GI50,TK-10,> 100 µM (inactive)
same,GI50,U-251,> 100 µM (inactive)
same,GI50,UACC-257,> 100 µM (inactive)
same,GI50,UO-31,> 100 µM (inactive)
same,GI50,XF498,> 100 µM (inactive)
CS(=O)(=O)NNS(=O)(=O)c1ccc(Br)cc1,GI50,786-0,> 100 µM (inactive)
same,GI50,A498,> 100 µM (inactive)
same,GI50,A549,> 100 µM (inactive)
same,GI50,ACHN,> 100 µM (inactive)
same,GI50,CAKI-1,> 100 µM (inactive)
same,GI50,CCRF-CEM,> 100 µM (inactive)
same,GI50,COLO 205,> 100 µM (inactive)
same,GI50,DLD-1,> 100 µM (inactive)
same,GI50,DMS-114,> 100 µM (inactive)
same,GI50,DMS-273,> 100 µM (inactive)
same,GI50,EKVX,> 100 µM (inactive)
same,GI50,HCC 2998,> 100 µM (inactive)
same,GI50,HCT-116,> 100 µM (inactive)
same,GI50,HCT-15,> 100 µM
same,GI50,HL-60,> 100 µM (inactive)
same,GI50,HOP-18,> 100 µM (inactive)
same,GI50,HOP-62,> 100 µM (inactive)
same,GI50,HOP-92,> 100 µM (inactive)
same,GI50,HT-29,> 100 µM (inactive)
same,GI50,IGROV-1,> 100 µM (inactive)
same,GI50,K562,> 100 µM (inactive)
same,GI50,KM-20L2,> 100 µM (inactive)
same,GI50,LOX IMVI,> 100 µM (inactive)
same,GI50,LXFL 529,> 100 µM (inactive)
same,GI50,M14,> 100 µM (inactive)
same,GI50,M19-MEL,> 100 µM (inactive)
same,GI50,Malme-3M,> 100 µM (inactive)
same,GI50,NCI-H226,> 100 µM (inactive)
same,GI50,NCI-H23,> 100 µM (inactive)
same,GI50,NCI-H460,> 100 µM (inactive)
same,GI50,NCI-H522,> 100 µM (inactive)
same,GI50,OVCAR-4,> 100 µM (inactive)
same,GI50,OVCAR-5,> 100 µM (inactive)
same,GI50,OVCAR-8,> 100 µM (inactive)
same,GI50,RPMI-8226,> 100 µM (inactive)
same,GI50,RXF 393,> 100 µM (inactive)
same,GI50,SF-268,> 100 µM (inactive)
same,GI50,SF-539,> 100 µM (inactive)
same,GI50,SK-MEL-28,> 100 µM (inactive)
same,GI50,SK-MEL-2,> 100 µM (inactive)
same,GI50,SK-MEL-5,> 100 µM (inactive)
same,GI50,SK-OV-3,> 100 µM (inactive)
same,GI50,SNB-19,> 100 µM (inactive)
same,GI50,SNB-75,87.7 µM (inactive)
same,GI50,SNB-78,> 100 µM (inactive)
same,GI50,SW-620,> 100 µM (inactive)
same,GI50,TK-10,> 100 µM (inactive)
same,GI50,U-251,> 100 µM (inactive)
same,GI50,UACC-257,> 100 µM (inactive)
same,GI50,UACC-62,> 100 µM (inactive)
same,GI50,UO-31,> 100 µM (inactive)
same,GI50,XF498,> 100 µM (inactive)
